Measurements published in PMC6428247, “Potent inhibitors of equine steroid isomerase EcaGST A3-3” (PLoS ONE, 2019).
Where “and” joins values, the source holds several entries; their conditions need not be identical. Identical values can stand only once. Like-named read-outs stand apart in the source and are kept apart here.

B1: EcaGST A3-3 (Equus caballus) (protein)
chain: MAVKPMLHYFNGRGRMEPIRWLLAAAGVEFEETFIDTPEDFEKLKNDGSLMFQQVPMVEIDGMKLVQSRAILNYVAAKHNLYGKDIKERALIDMYIEGVADLNEMILLLPITPPAEKDAKIMLIKDRTTNRYLPAFEKVLKSHGEDYLVGNRLSRADIHLVELLYLVEELDPSLLTNFPLLKALKARISNLPTVKKFLQPGGARKPPGDEKSVEKSRKIFKF

Key:
HsaGST P1-1 = system: HsaGST P1-1; design: method as in PMID 23769903; conditions: 1 mM GSH, 1 mM CDNB, pH 6.5, 30°C, cited from earlier work; for Inhibition (%) of HsaGST P1-1: 3.3 μM inhibitor; for IC50: CDNB activity
HsaGST M2-2 = molecular target: T1, HsaGST M2-2 (Homo sapiens, UniProt P28161); experiment: Inhibition of HsaGST M2-2 CDNB activity; assay type: biochemical
T1 construct: made in house
T1 sequence (P28161 1-218): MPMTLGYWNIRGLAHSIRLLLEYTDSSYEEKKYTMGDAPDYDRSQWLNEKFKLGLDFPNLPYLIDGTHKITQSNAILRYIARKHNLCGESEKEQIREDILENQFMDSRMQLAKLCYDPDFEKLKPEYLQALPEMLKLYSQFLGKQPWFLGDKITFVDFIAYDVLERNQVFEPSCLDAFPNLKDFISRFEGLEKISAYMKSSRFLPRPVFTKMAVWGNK
Method: (§1) EcaGST A3-3 [10], HsaGST A3-3 [12] and HsaGST M2-2 [13] were cloned, expressed and purified as described previously. Protein concentration was determined by means of the Bradford assay.
(§2) The conjugation of GSH with the electrophilic substrate CDNB was used as a biochemical assay for general activity measurements. Screening of the US Drug library for inhibition was done in triplicates in 96-well plates in a Thermo Scientific Multiskan GO spectrophotometer. The conjugation activity at 30°C was monitored at 340 nm for 1 min in 0.1 M sodium phosphate buffer at pH 6.5 and 10 μM inhibitor concentration in a final volume of 300 μL. Initial concentrations of GSH and CDNB were 1 mM.
(§3) For understanding the effects of pharmacological interventions based on GST inhibitors, it is important to know the selectivity among the numerous GSTs. […] All values were determined with CDNB, which is a common substrate for all the enzymes.

EcaGST A3-3 [1] = molecular target: T2, EcaGST A3-3 (Equus caballus, UniProt M9ZT87); experiment: Inhibition of EcaGST A3-3 steroid double-bond isomerase activity with Δ^5-AD; assay type: biochemical, Equus ferus caballus
EcaGST A3-3 [2] = molecular target: T2, EcaGST A3-3; experiment: Inhibition of EcaGST A3-3 activity, GSH conjugation with CDNB; assay type: biochemical, Equus ferus caballus; conditions: for Inhibition (%) of EcaGST A3-3: 10 μM inhibitor, sodium phosphate pH 6.5, 30°C; for inhibition at 10 µM: pH 6.5, read-out: Inhibition (%) of EcaGST A3-3, 10 μM inhibitor, 1 mM GSH, 1 mM CDNB, sodium phosphate pH 6.5, 30°C
Method: The final solvent concentration in the reaction system was kept at 5% (v/v) as a maximum.
as §2
Assay conditions for inhibition measurements of enzyme activity with CDNB were the following: EcaGST A3-3 15 nM, initial concentrations of GSH and CDNB 1 mM, inhibitor concentrations varying from 0.029 μM to 15 μM, in 100 mM Na2HPO4/NaH2PO4 at pH 6.5.
The reactions were followed spectrophotometrically for 1 min at 30°C using a Shimadzu UV-2501 PC spectrophotometer (Shimadzu Inc.). All experiments included triplicate measurements in each data point.
The equation for competitive inhibition fitted by non-linear regression was v=Vmax[S]/KM(1+[I]/Ki)+[S] where [S] is the substrate concentrations and [I] is the inhibitor concentration.

HsaGST S1-1 = system: HsaGST S1-1; design: method as in PMID 25603235; conditions: 1 mM GSH, 1 mM CDNB, pH 6.5, 30°C, cited from earlier work; for Inhibition (%) of HsaGST S1-1: 10 μM inhibitor; for IC50: CDNB activity
HsaGST A3-3 [3] = molecular target: T3, HsaGST A3-3 (Homo sapiens, UniProt Q16772); experiment: Inhibition of HsaGST A3-3 CDNB activity; assay type: biochemical; conditions: for Inhibition (%) of HsaGST A3-3: 10 μM inhibitor
T3 construct: made in house
T3 sequence (Q16772 1-222): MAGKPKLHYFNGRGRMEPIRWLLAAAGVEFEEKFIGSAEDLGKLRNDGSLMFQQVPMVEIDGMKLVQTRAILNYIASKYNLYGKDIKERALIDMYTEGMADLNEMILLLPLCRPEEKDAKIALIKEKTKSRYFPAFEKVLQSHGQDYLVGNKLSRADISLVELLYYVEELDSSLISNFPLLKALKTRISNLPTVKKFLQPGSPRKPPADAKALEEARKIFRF
Method: as §1, §2, §3

HsaGST A3-3 [4] = molecular target: T3, HsaGST A3-3; design: method as in PMID 23769903; conditions: CDNB activity, 1 mM GSH, 1 mM CDNB, pH 6.5, 30°C; read-out: IC50 HsaGST A3-3 (published); cited from earlier work
[5] = substrate: CC12CCC3C(CC=C4CC(=O)CCC43C)C1CCC2=O; experiment: purified protein, by the assay type; conditions: other: 1 mM GSH, fitted with and without anthralin; 30.0 °C
[6] = 10 μM inhibitor, 1 mM GSH, 1 mM CDNB, pH 6.5, 30°C, read-out: Inhibition (%) of HsaGST M2-2
[7] = 1 mM CDNB, 1 mM GSH, 100 mM sodium phosphate pH 6.5, 30°C, read-out: IC50 EcaGST A3-3, substrate CDNB
[8] = pH 6.5, 10 μM inhibitor, 1 mM GSH, 1 mM CDNB, pH 6.5, 30°C, read-out: Inhibition (%) of HsaGST A3-3
[9] = 10 μM inhibitor, 1 mM GSH, 1 mM CDNB, pH 6.5, 30°C
[10] = 0.1 mM Δ^5-AD, 1 mM GSH, 25 mM sodium phosphate pH 8.0, 30°C
[11] = 1 mM GSH, 1 mM CDNB, pH 6.5, 30°C

| Molecule | Inhibition (%) of HsaGST P1-1 (HsaGST P1-1) [%] | inhibition at 10 µM (HsaGST M2-2; [6]) [%] | IC50 (EcaGST A3-3 [1]) [nM] | Inhibition (%) of EcaGST A3-3 (EcaGST A3-3 [2]; 1 mM GSH, 1 mM CDNB) [%] | IC50 (EcaGST A3-3 [2]; [7]) [nM] | Inhibition (%) of HsaGST S1-1 (HsaGST S1-1) [%] | IC50 (HsaGST S1-1) [nM] | inhibition at 10 µM (HsaGST A3-3 [3]; [8]) [%] | IC50 (HsaGST A3-3 [4]) [nM] | IC50 (HsaGST P1-1) [nM] | Inhibition (%) of HsaGST M2-2 (HsaGST M2-2; [9]) | IC50 EcaGST A3-3, substrate Δ^5-AD (EcaGST A3-3 [1]; [10]) | IC50 (EcaGST A3-3 [2]) [nM] | inhibition at 10 µM (EcaGST A3-3 [2]) [%] | Inhibition (%) of HsaGST A3-3 (HsaGST A3-3 [3]; [11]) [%] | other results |
| --- | --- | --- | --- | --- | --- | --- | --- | --- | --- | --- | --- | --- | --- | --- | --- | --- |
| Oc1c(Cl)cc(Cl)cc1Sc1cc(Cl)cc(Cl)c1O [Bithionate sodium] | 10 | 73 | 1600 ± 310 | 64 ± 22 | 1900 ± 520 | 47 | 12000 | 47 | 700 | – | – | – | – | – | – | – |
| C=C(CC)C(=O)c1ccc(OCC(=O)O)c(Cl)c1Cl [Ethacrynic acid] | 25 | 0 | 250 ± 100 | 100 | – | 32 | 44000 | 94 to 100 | 400 | 4900 | low or negligible effects | submicromolar range | 180 ± 67 | 94 to 100 | 94 | Inhibition (%) of HsaGST P1-1 (HsaGST P1-1; listed as ethacrynic acid): low or negligible effects; Hill coefficient, Δ^5-AD inhibition (EcaGST A3-3 [1]; dose-response curve, substrate Δ^5-AD, mean ± SD): 1.0; Inhibition modality, substrate CDNB (EcaGST A3-3 [2]; CDNB varied, 1 mM GSH): Competitive; Ki (EcaGST A3-3 [2]; Ki, EcaGST A3-3, substrate CDNB, CDNB varied, 1 mM GSH, 0.25 μM inhibitor): 140 nM and 141 nM; Hill coefficient, CDNB inhibition (EcaGST A3-3 [2]; dose-response curve, substrate CDNB, mean ± SD): 2.5±0.21; Inhibition (%) of HsaGST S1-1 (HsaGST S1-1; listed as ethacrynic acid): low or negligible effects |
| Oc1c(Cl)cc(Cl)c(Cl)c1Cc1c(O)c(Cl)cc(Cl)c1Cl [Hexachlorophene] | 34 | – | 440 ± 220 | – | – | 61 | 8900 | – | 160 | 9700 | – | – | 320 ± 36 | 96 ± 1.1 | – | IC50 (HsaGST M2-2): 1500 nM; inhibition at 10 µM (HsaGST M2-2; pH 6.5, read-out: Inhibition (%) of HsaGST M2-2): 98%; inhibition at 10 µM (HsaGST A3-3 [3]; pH 6.5, read-out: Inhibition (%) of HsaGST A3-3): 89% |
| O=C([O-])c1ccccc1-c1c2cc(Br)c(=O)cc-2oc2[c]([Hg+])c([O-])c(Br)cc12.[Na+].[Na+].[OH-] [Merbromin] | 44 | – | – | 95 ± 18 | 2600 ± 630 | 85 | 3300 | – | 660 | 3100 | 85% | – | – | – | 98 | IC50 (HsaGST M2-2; CDNB activity, 1 mM GSH, 1 mM CDNB, pH 6.5, 30°C, read-out: IC50 HsaGST M2-2): 4900 nM; IC50 (EcaGST A3-3 [1]; read-out: IC50 EcaGST A3-3, substrate Δ^5-AD, 0.1 mM Δ^5-AD, 1 mM GSH, 25 mM sodium phosphate pH 8.0, 30°C): 2500 ± 480 nM |
| Chlorophyllide Cu-complex Na salt | 51 | – | – | 98 ±2.2 | 2100 ± 270 | 100 | 1700 | – | 330 | 2300 | 100% | Anomalous curve | – | – | 84 | – |
| B1 | – | – | – | – | – | – | – | – | – | – | – | – | – | – | – | Km [5]: 10.8 ± 0.46 µM |
